Laboratory results as given in a melting point compilation (Tetko et al.; mined from patent text by program, amines drawn as free bases though some values may be those of a salt).

melting point | Compound
113 to 115 °C | COc1ccc2c(c1)Oc1ccc(Cl)cc1NC2
115 °C | COC(=O)C(=NO)c1ccccc1COc1ccccc1C
184 to 186 °C | CCCCCN(C(=O)Nc1ccc(C(=O)O)cc1)c1ccc2c(c1)C(C)(C)CCC2(C)C
126 to 128 °C | CC(=O)c1ccc(OCCCN2CCC(c3noc4cc(F)ccc34)CC2)c(Br)c1
58 °C | CCCCCCCCC#CCCCCCCCCCCCC(=O)O
312 °C | CS(=O)(=O)c1ccc(Cc2n[nH]c3c2c(=O)n(-c2ccccc2)c2ncccc32)cc1
58 to 59 °C | CC(C)Cc1cc2cc(O)c(Cl)c(Cl)c2s1
11 °C | CC(C)(C)[N+]([O-])=Cc1ccc(OCc2ccccc2)cc1
169 to 170 °C | CCOC(=O)C1=C(C)NC(CN2C(=O)c3ccccc3C2=O)=C(C(=O)OCC)C1c1ccccc1 (stereo not drawn)
276 to 282 °C | Cc1cc(C)c(-c2cc3cnc(N)nc3nc2N)c(C)c1
66 to 68 °C | COc1ccc(F)c2c1CCC(C=O)C2=O (stereo not drawn)
146 to 147 °C | Cc1nc[nH]c1CSCCC1=NCCS(=O)(=O)N1
118 °C | CCCCCCCNC(=O)Nc1ccccc1C(=O)NCCC(c1ccccc1)c1ccccc1
93 to 95 °C | Cc1cc(Nc2ccccc2C(=O)N2CCCCC2)ccn1
250 to 253 °C | CC(C)(C)Nc1nc(-c2ccc(F)cc2)c(-c2ccc(S(C)(=O)=O)cc2)s1
194 to 195 °C | CCOC(=O)CNc1cc(F)ccc1[N+](=O)[O-]
275 to 277 °C | Cc1nccn1Cc1ccc(COc2cccc3c2CN(C2CCC(=O)NC2=O)C3=O)cc1 (stereo not drawn)
141 to 143 °C | CCCCC(C)c1cc(O)c2c(c1)OC(C)(C)CC2C1=CCN(CCc2ccccc2)CC1 (stereo not drawn)
166 to 167 °C | COc1cccc(-c2cc(F)cc3c2OC(CN)C3)c1OC (stereo not drawn)
202 °C | CC(C)N(C(=O)COc1c(F)cc(-c2ccc(C(=O)O)cc2)cc1[N+](=O)[O-])C(C)C
303 to 308 °C | O=C(Nc1ccc(-c2c[nH]c(=O)cn2)cc1)c1ccncc1
140 to 142 °C | Cc1cc(C)cc(CN(C)C(=O)C(Cc2c[nH]c3ccccc23)NC(=O)c2ccccc2)c1 (stereo not drawn)
256 to 258 °C | O=c1[nH]cnc2sccc12
64 to 66 °C | CCCCCCCCCCc1ccc2c(c1)C(=O)C(=COC(=O)c1ccccc1)CC2

melting point | Compound
183 to 185 °C | CSc1c(Cl)ccc(C(=O)O)c1F
99.5 to 102 °C | O=c1c(Cl)nsnc1Sc1ccccc1
255 to 257 °C | Cc1ccc(Cl)c(Nc2ccccc2-c2nnc(N)o2)c1Cl
157 to 158 °C | CC(Cc1sc(Br)cc1Cl)NC(=O)c1cn(C)nc1C(F)F (stereo not drawn)
234 to 236 °C | COc1ccc(-c2sc3c(c2CBr)c(=O)c(-c2cnco2)cn3Cc2ccccc2F)cc1
77 to 79 °C | O=C(O)C(Br)CCCCCc1ccc(Cl)cc1 (stereo not drawn)
158 to 160 °C | Cc1cc(C(=O)Nc2ccccc2C)n(C)n1
275 to 279 °C | CNn1cc(C(=O)O)c(=O)c2cc(F)c(Cl)cc21
179 °C | Cc1ccnc(C(=O)c2[nH]c3ccc(Cl)cc3c2CC(=O)N2CCC(N)C2)c1 (stereo not drawn)
135 to 136 °C | COc1cc(COc2nn(-c3ccccc3)cc2/C=C/c2ccccn2)ccc1OCc1nc(-c2ccco2)oc1C
117 to 118 °C | COC(=O)/C=C/c1nc2ccc(Cl)cc2c(=O)o1
114 to 115 °C | COc1cc(-c2ccc(C=O)cc2)nc(C)n1
120 to 123 °C | Cc1noc(NS(=O)(=O)c2c(Cc3ccccc3)sc3ccccc23)c1Br
104 to 105 °C | CS(=O)(=O)NC(=O)C1(CCCCCCCCCCCCC2(C(=O)NCCO)CC2)CC1
231 to 235 °C | CS(=O)(=O)c1csc(NC(=O)c2ccccc2O)n1
167 to 169 °C | CCOc1cc2ncc(C#N)c(NCc3ccc(F)c(F)c3)c2cc1OCC
185 to 186 °C | CCCC(CCC)n1c(CC)nc2c1c(=O)n(C)c(=O)n2-c1ccc(Cl)cc1Cl
143 to 144 °C | Cc1nc(-c2ccc(F)cc2)n(-c2ccc(S(C)(=O)=O)cc2)n1
123 to 124 °C | O=C1N(c2ccccc2)CCN1C1CCNCC1
242 to 247 °C | COc1ccc(-c2nc(C3=NNC(=O)CC3)sc2-c2ccc(OC)cc2)cc1
230 to 231 °C | Cn1nc2c(N)nc3c(c2c1CCC1CCCCC1)CCCC3
89 to 90 °C | C1=Cc2ccccc2NC1
65 °C | CCc1nn(-c2ccc(F)cc2)c2c1C(C)N(C)C2=O (stereo not drawn)
129 °C | Cc1cc(C=O)c2cccc(OCc3ccccc3)c2n1

Second part, the compound before the results:

Compound | melting point
c1ccc(-c2cc(N3CCCCC3)c(-c3ccccc3)o2)cc1 | 103 °C
CCOC(=O)c1c(O)c2ccc(C)nc2[nH]c1=O | 190 to 193 °C
Cc1c(/C=C2\COc3ccccc3C2=O)ncn1C(c1ccccc1)(c1ccccc1)c1ccccc1 | 231 to 233 °C
CC(=CC#N)c1cc(-c2ccc(S(C)(=O)=O)cc2)c(-c2ccc(F)cc2)s1 | 150 to 154 °C
CCOC(=O)C1=C(C)NC(=O)N(C(=O)OC(C)C)C1c1cccc(Cl)c1Cl (stereo not drawn) | 139 to 140 °C
C#CCNC(=O)c1ccc(C(=O)OC)cc1 | 152 to 153 °C
CC(=O)OCC1OC(C2=NNC(N)(c3ccc(Cl)c(Cl)c3)O2)C(OC(C)=O)C(OC(C)=O)C1OC(C)=O (stereo not drawn) | 180 to 181 °C
Cc1ccc(C)c(NC(=O)CCl)c1C | 145 to 146 °C
CC(=O)OCc1ccccc1S(N)(=O)=O | 131 to 133 °C
CC(C)C(NC(=O)Cn1cc(Cc2ccc(C(F)(F)F)cc2)cc(NC(=O)OCc2ccccc2)c1=O)C(=O)C(F)(F)F (stereo not drawn) | 61 to 65 °C
CC(C)c1nn(-c2ccc(C(F)(F)F)cc2)cc1CCCOc1ccccc1CC(=O)O | 89 to 90 °C
CCC(=O)C1=C(O)CC(c2ccc3c(c2)OCO3)CC1=O (stereo not drawn) | 129 °C
C[C@]12CCC(=O)N[C@@H]1CCc1cc(Sc3ccc4ccccc4n3)ccc12 | 220 to 222 °C
CCc1c(C=O)c2ccc(C(N)=O)cc2n1Cc1ccccc1Cl | 260 to 261 °C
COc1ccc(/C=C2/c3cc(OC)c(OC)cc3CCN2C(=O)C2CC2)cc1OC | 148 to 151 °C
COc1ccc2c(CCN3CCCCC3=O)c[nH]c2c1 | 146 °C
CC1CN(c2cc3c(cc2F)c(=O)c(C(=O)O)c2n3C(C)S2)CCN1C (stereo not drawn) | 198 to 201 °C
CCCN(C(C)C)C(C)CC1=C(c2ccc(OC)cc2)CCCNC1=O (stereo not drawn) | 90 to 92 °C
Cc1cccc2c(=O)[nH]c(C3CCN(CCCO)CC3)cc12 | 197 to 199 °C
CC(=O)c1ccc(OCC(C)(O)C(=O)Nc2ccc([N+](=O)[O-])c(C)c2)cc1 (stereo not drawn) | 153 to 155 °C
COC(=O)c1cc(N)c(C#N)s1 | 187 to 189 °C
CSc1nn2c(NCCN(C)C)cc(C)nc2c1S(=O)(=O)c1ccccc1 | 190 to 191 °C
CCOC(=O)C(CC1C(O)C2CCN1CC2)c1ccccc1 (stereo not drawn) | 148 °C
O=C(SC[C@H](SC(=O)c1ccccc1)C(=O)N[C@@H](CO)C(=O)O)c1ccccc1 | 147 to 150 °C
COc1cccc2c1OC(CO)CN2 (stereo not drawn) | 108 to 110 °C
COc1ccc(S(=O)(=O)C2(CCCCC#Cc3ccc(Cl)cc3)SC(=O)NC2=O)cc1 (stereo not drawn) | 145 to 148 °C
COCOCc1cccc(-c2ccc(C(=O)O)cc2)c1 | 126 to 127 °C
O=C(O)C1=CCCN1C(=O)CCS | 94 to 96 °C

Compound | melting point
ON=C(Cc1ccccc1)c1cccnc1 | 122 to 126 °C
CCCCc1nc2c(N)nc3ccccc3c2n1CCCCN1CCCS1(=O)=O | 173 to 176 °C
CN(C)Cc1nc(C#N)nn1-c1ccc(Cl)cc1C(=O)c1ccccc1Cl | 117 to 119 °C
CCC1CC(=O)N(Cc2ccc(NC(C)=O)cc2)N=C1c1ccc(OC)c(OC2CCCC2)c1 (stereo not drawn) | 162 °C
COC(=O)c1cccc(-c2ccccc2OC2OC(C)C(O)C(O)C2O)c1 (stereo not drawn) | 137 to 140 °C
O=C(O)CCSC1c2ccc(SCC(=O)O)cc2COc2ccc(OCc3ccc4ccc(Cl)cc4n3)cc21 (stereo not drawn) | 165 to 167 °C
COc1cc(N)c(Cl)cc1C(=O)NC1CCN(CCCOc2ccc(F)cc2)CC1(F)F (stereo not drawn) | 126 °C
Cc1cc(CC(=O)OC(C)(C)C)ccc1NC(=O)Nc1ccccc1 | 143 to 145 °C
CCn1cc(-c2cccc(C(F)(F)F)c2)c(=O)n1-c1cccc(Br)c1 | 106 °C
O=C(NN=Cc1cccc(C(F)(F)F)c1Cl)c1ccc(O)cc1 | 262 °C
Cc1c(Cl)nnc(Cl)c1Cl | 67.5 to 70 °C
C1CNC2CNCC2C1 (stereo not drawn) | 65 to 67 °C
CCN(CC)c1ccc(C(c2ccc(N(C)C)cc2C(=O)O)c2ccc(N(C)C)cc2N(C)C)cc1 (stereo not drawn) | 128 to 130 °C
CC(C)(C)c1ccc(C2(O)CN(C(c3ccccc3)c3ccccc3)C2)cc1 | 168 to 169 °C
CCc1nc2c(Cl)cc(F)c(-n3c(=O)cc(C(F)(F)F)[nH]c3=O)c2s1 | 178 to 180 °C
O=Cc1ccc(-c2ccc(Cl)cc2)cc1 | 108 to 112 °C
CCN1C(=O)C(C)(C)C(=O)N(C)c2cc(OCCCn3cc(-c4ccc(OC)nc4)c(=O)c4ccccc43)ccc21 | 159 to 161 °C
Nc1ccc(OCc2ccc(F)cc2)cc1F | 42 to 43 °C
CC(/C=C/c1sccc1-c1ccc2c(c1)C(C)(C)CCC2(C)C)=C\C(=O)O | 188 to 189 °C
CN1C(=O)[C@H](NC(=O)CCc2cccc(Cl)c2)N=C(c2ccccc2)c2ccccc21 | 157 to 159 °C
CSc1c(CC(C)(C)C(=O)O)n(Cc2ccc(Cl)cc2)c2ccc(C(C)C)cc12 | 143 to 144 °C
OC1(c2cccc(C(F)(F)F)c2)CCN(CCc2ccc3ncccc3c2)CC1 | 140 to 142 °C
Cn1ncc(N2CCCCC2)c(-c2ccccc2C=O)c1=O | 134 to 135 °C
O=C1O[C@@H]2C[C@@]1(O)C[C@H]1OC(c3ccccc3)O[C@@H]21 (stereo partly drawn) | 96 to 97 °C
c1ccc2c(c1)Oc1ccccc1C2NCCn1ccnc1 | 90 to 92 °C
O=C1/C(=C(\NCCO)c2ccccc2)Sc2ccccc21 | 122 to 123 °C
O=C(Nc1cccc(-c2nnn[nH]2)c1)C(=O)N1CCC(Cc2ccccc2)CC1 | 159 to 161 °C
